Key:
[1] = Two-step dissolution / precipitation Fasted Human in-vitro model (Fassif); format: physicochemical; conditions: thermodynamic from solid, final pH = 6.5, 30min in FaSSGF pH1.2 + 120min in FaSSIF x2 pH6.5 / Sodium bicarbonate 90/10 v/v, 37°C, read-out: solubility (HPLC-UV dosage of supernatant), last measurement point
Method: (§1) ABX464 in its unique crystalline form and ABX464 :VA64 ASD (prepared according to example 1 above) were tested by using both Fasted and Fed Human in-vitro models (respectively named Fassif and Fessif models). These models simulate respectively fasted and fed state gastrointestinal fluids for dissolution testing.
For the Fasted in-vitro model, 11.4mg of ABX464:VA64 ASD (4.0mg equivalent ABX464) were weighed in 6 different vials. In all vials, 1ml of FaSSGF pH1.2 solution pre-heated at 37°C were added. Suspension were then vortexed at 37°C. After 15min vortex, suspension of the first vial was centrifuged 5min at 18000 rpm and filtered under 0.45µm filter (Millex LCR filter ref. SLCR0.13NK) for HPLC-UV dosage of supernatant. After 30min vortex, suspension of the second vial was centrifuged 5min at 18000 rpm and filtered under 0.45µm filter (Millex LCR filter ref. SLCR0.13NK) for HPLC-UV dosage of supernatant.
After 30min vortex, 1ml of FaSSIF x2 pH6.5 / Sodium bicarbonate 90/10 v/v pre-heated at 37°C was added on other 4 vials. Suspension were then vortexed at 37°C. After 15min vortex, suspension of the third vial was centrifuged 5min at 18000 rpm and filtered under 0.45µm filter (Millex LCR filter ref. SLCR0.13NK) for HPLC-UV dosage of supernatant. […]

[2] = Two-step dissolution / precipitation Fed Human in-vitro model (Fessif); format: physicochemical; conditions: thermodynamic from solid, final pH 5.0, 60min in FeSSGF pH3.0 + 120min in FeSSIF x3 pH5.0, 37°C, read-out: solubility (HPLC-UV dosage of supernatant), last measurement point
Method: as §1
For the Fed in-vitro model, 11.4mg of ABX464:VA64 ASD (4.0mg equivalent ABX464) were weighed in 7 different vials. In all vials, 1ml of FeSSGF pH3.0 solution pre-heated at 37°C were added. Suspension were then vortexed at 37°C. After 15min vortex, suspension of the first vial was centrifuged 5min at 18000 rpm and filtered under 0.45µm filter (Millex LCR filter ref. SLCR0.13NK) for HPLC-UV dosage of supernatant. After 30min vortex, suspension of the second vial was centrifuged 5min at 18000 rpm and filtered under 0.45µm filter (Millex LCR filter ref. SLCR0.13NK) for HPLC-UV dosage of supernatant. After 60min vortex, suspension of the third vial was centrifuged 5min at 18000 rpm and filtered under 0.45µm filter (Millex LCR filter ref. SLCR0.13NK) for HPLC-UV dosage of supernatant.
After 60min vortex, 0.5ml of FeSSIF x3 pH5.0 pre-heated at 37°C was added on other 4 vials. Suspension were then vortexed at 37°C. […]

Question: Which solubility at 120 min [1] does the source give for `FC(F)(F)Oc1ccc(Nc2ccc3cccc(Cl)c3n2)cc1` [ABX464, 8-Chloro-N-(4-(trifluoromethoxy)phenyl)quinolin-2-amine] here?
Answer: 70 µg/mL

Question: What about the solubility at 120 min [2] of the same compound?
Answer: 508 µg/mL

— patent EP3858336A1, “AMORPHOUS SOLID DISPERSION OF 8-CHLORO-N-(4-(TRIFLUOROMETHOXY)PHENYL)QUINOLIN-2-AMINE” (ABIVAX, priority 2020, dated 2021)
